Positions count from the first letter of the chain named. Where a SMILES comes first, the peptide text is derived from it. Bridges are numbered along the chain shown (N, C = ends).

For assay [1], the target named is T1, rGHBP (Rattus norvegicus, UniProt P16310).
T1 construct: 1–48 of GHBP; The 3′ oligo used for this reaction encoded the mutation L43R (CTG→AGA); The second PCR reaction amplified the DNA encoding amino acids 38–260; 6xHis; made in house
T1 sequence (P16310 19-278 isoform P16310-2): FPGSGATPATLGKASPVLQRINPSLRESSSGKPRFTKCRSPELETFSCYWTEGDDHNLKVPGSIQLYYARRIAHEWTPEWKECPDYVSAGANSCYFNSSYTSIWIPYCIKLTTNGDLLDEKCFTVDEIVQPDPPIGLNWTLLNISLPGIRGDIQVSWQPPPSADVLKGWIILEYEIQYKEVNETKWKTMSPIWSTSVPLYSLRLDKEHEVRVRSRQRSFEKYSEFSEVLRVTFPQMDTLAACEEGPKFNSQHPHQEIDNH
The assay can be described thus: Phage ELISA binding and competition on rGHBP coated wells. As for the experimental part:
For analysis of individual clones, colonies were picked and phage prepared as described above. Microtiter wells were coated and blocked as described above. Wells were coated with either rGHBP or a control IgG MAb. Phage resuspended in MPBS were added to duplicate wells (100 μl/well) and incubated at room temperature for 1 hr. The phage solution was then removed, and the wells were washed three times with PBS at room temperature. Anti-M13 antibody conjugated to horseradish peroxidase (Pharmacia Biotech) was diluted 1:3000 in MPBS and added to each well (100 μl/well). Incubation was for another hour at room temperature, followed by PBS washes as described. Color was developed by addition of ABTS solution (100 μl/well; Boehringer). Color development was stopped by adjusting each well to 0.5% SDS. Plates were analyzed at 405 nm using a SpectraMax 340 plate reader (Molecular Devices) and SoftMax Pro software. Data points were averaged after subtraction of appropriate blanks. A clone was considered “positive” if the A405 of the well was >2-fold over background. […]
These clones were next analyzed for binding to the receptor's active sites (FIG. 2B). Competitions of phage binding were done both with the cognate ligand (i.e., GH) and with a specific target-neutralizing MAb 2C3 (Wang, B. S., et al. Mol. Cellular Endocrinology, vol. 116, p. 223–226, 1996).
Clones were tested for the presence of E-tag and binding to ‘hu’ GHBP, rGHBP, or BSA-coated wells. Those having specific GHBP binding (i.e., at least 2 fold greater binding to the GHBP than BSA) and with an E-tag positive signal were subjected to DNA sequencing. Three different clones were isolated and tested a second time against GHBP plus and minus GH (1 μM) or BSA (1 μM) coated wells as described. In these tests, huGH was used as competitor with ‘hu’ GHBP coated wells and bovineGH was used as a competitor with rat GHBP coated wells. […] The following open reading frame insertion including the DYKD (SEQ ID NO:79) amino terminal tag and up to the C-terminal E-tag was obtained for these clones; and is shown in Table III: […]
On the technique in general: ELISA stands for enzyme-linked immunosorbent assay.

Assay [2] deals with T1, rGHBP. The assay can be described thus: Species specificity of binding by ELISA and BIAcore, rGHBP. Conditions: in words. As for the experimental part:
(§1) Wells were coated with either recombinant rGHBP or ‘hu’ GHBP (100 ng/well). Additions of H5 (SEQ ID NO:8) and H10 (SEQ ID NOS:9, 80, and 81) phage (10^10/well) and detection were made as described. […] Streptavidin chips were coated with H5 (SEQ ID NO:8) to 1100 RU as described and rGHBP or ‘hu’ GHBP (500 μg/ml) injected as 30 μl samples.
(§2) Growth hormone receptors from different species bind human GH as well as their own GH, however human GHR only binds human or monkey GH. […] The sequence of rGHBP was altered by PCR to create a “humanized” version (‘hu’ GHBP; FIG. 9A). Partially purified ‘hu’GHBP (FIG. 9B) was tested for binding using ELISA and BIAcore analysis. […] This was confirmed by BIAcore analysis (FIG. 10B).
(§3) The biotinylated control peptide (SEQ ID NO:10) was immobilized onto one flow cell of a SA-5 (streptavidin coated) sensor chip to a final density of 700 RU. On a second flow cell, either hGH (1100 RU final density), H5WT peptide (SEQ ID NO:8; 1100 RU final density), or bGH (730 RU final density) was immobilized. GHBP (either rat or humanized) was injected at a concentration of 500 μg/ml with a flow rate of 5 μl/min. Background binding to the control surface was subtracted prior to further analysis.

Another assay concerns the target T2, ‘hu’ GHBP (Rattus norvegicus, UniProt P16310, L61R).
T2 construct: 1–48 of GHBP; The 3′ oligo used for this reaction encoded the mutation L43R (CTG→AGA); The second PCR reaction amplified the DNA encoding amino acids 38–260; 6xHis; made in house
T2 sequence (P16310 19-278 isoform P16310-2 L61R): T1 sequence (P16310 19-278 isoform P16310-2) with L43R
The assay can be described thus: Species specificity of binding by ELISA and BIAcore, 'hu' GHBP. Conditions: in words. As for the experimental part: as §1, §2, §3

Regarding `CC(C)C[C@@H]1NC(=O)[C@H](CO)NC(=O)[C@H](CCC(N)=O)NC(=O)[C@@H](NC(=O)[C@H](CC(C)C)NC(=O)[C@H](CC(=O)O)NC(=O)[C@H](CCCCN)NC(=O)[C@H](Cc2ccc(O)cc2)NC(=O)[C@@H](N)CC(=O)O)CSSC[C@@H](C(=O)N[C@@H](C)C(=O)N[C@@H](CCCCN)C(=O)N[C@@H](CCCCN)C(=O)O)NC(=O)[C@H](Cc2c[nH]c3ccccc23)NC(=O)CNC(=O)[C@H](C)NC(=O)[C@H](CC(C)C)NC(=O)[C@H](Cc2c[nH]c3ccccc23)NC(=O)CNC(=O)[C@@H]2CCCN2C(=O)[C@H](Cc2ccc(O)cc2)NC(=O)[C@H]([C@@H](C)O)NC(=O)[C@H](C(C)C)NC(=O)CNC1=O` [H5] (H-DYKDLCQSLGVTYPGWLAGWCAKK-OH; disulfide 6-21; N-terminus and C-terminus assumed), at rGHBP [1] (ELISA signal, BSA 1 μM, phage concentrated 15×), the “ELISA Competition, rGHBP, +BSA” value stood at 1.87. In addition, the “ELISA Competition, rGHBP, +bGH” value at rGHBP [1] (ELISA signal, bovine GH 1 μM, phage concentrated 15×) was determined as 0.32. The “ELISA Competition, rGHBP, none” value on rGHBP [1] (ELISA signal, no competitor, phage concentrated 15×) came out at 1.91. Further, on rGHBP [1] (competition ELISA of phage binding), the “phage binding to rGHBP blocked by GH and MAb 2C3” value is “blocked both by GH and by MAb 2C3”. Further, the “binding to rGHBP” value on rGHBP [2] was “bound to rGHBP”. Also, the “binding to ‘hu’ GHBP” value at ‘hu’ GHBP was “not ‘hu’GHBP”.

These data come from US7148193B2, “Compounds that bind to growth hormone receptor” (Antyra, Inc., priority 1997, dated 2006).
